Laboratory results reported in patent publication US4605662A, “1-substituted pyrrolizidine derivatives and antiarrhythmic use thereof” (Suntory Ltd., priority 1982, dated 1986).

Legend:
[1] = system: ventricular flutter and fibrillation; test: Protection against chloroform-induced ventricular arrhythmias in mice (Lawson method), subcutaneous; type: in vivo, ddy strain); conditions: 30 min before chloroform inhalation, male ddy mice; for ED50 / ED20 / ED40: Mus musculus, sc; for ED50: read-out: ED50 (95% confidence limits), antiarrhythmic activity; for ED20: read-out: ED20, antiarrhythmic activity; for ED40: read-out: ED40, antiarrhythmic activity
Protocol: In accordance with the method described by J. W. Lawson (Journal of Pharmacology and Experimental Therapeutics, vol. 160, pp. 22, 1968), male mice of the ddy strain weighing 16 to 30 g were allowed to inhale chloroform to induce ventricular arrhythmias. At the time when they ceased to breathe, the electrocardiogram of each animal was recorded to observe the ventricular flutter and fibrillation. The abnormalities of the ventricles observed in these animals can be prevented by pretreatment with substances which have antiarrhythmic activity. The compounds of this invention were subcutaneously injected in 4-5 different doses to groups of 29 to 40 mice. Thirty minutes later, the mice were subjected to inhalation of chloroform to induce arrhythmias, and the protection by each dose against the ventricular flutter and fibrillation were expressed as percent. […]

[2] = 50% lethal dose (LD50) by Up and Down Method in mice, and therapeutic index; type: in vivo; conditions: mouse, in vivo; Up and Down Method; male ddy mice 18 to 22 g
Source text: (§1) The 50% lethal doses (median lethal doses, LD50) were computed by the "Up and Down Method" (Pharmacological Experiment, compiled by Takagi and Ozawa, pp. 204, Nanzando, 1972) using male mice of the ddy strain weighing 18 to 22 g, and the ratios of the LD50 to ED50 values were expressed as the therapuetic indices, as presented in Table 1.

[3] = system: male mice of the ddy strain; test: as above; type: in vivo; conditions: LD50/ED50
Source text: as §1

Compound | ED50 ([1]; Litchfield and Wilcoxon) | ED20 [1] | LD50 [2] | ED40 [1] | Therapeutic index (ratio of LD50 to ED50) [3] | ED50 (95% confidence limits), antiarrhythmic activity ([1]; Litchfield and Wilcoxon)
Cc1ccccc1NC(=O)[C@@H]1CCN2CCC[C@@H]12 (relative stereo) | > 100 mg/kg | 100 mg/kg | > 500 mg/kg | – | – | –
COc1cccc(NC(=O)[C@@H]2CCN3CCC[C@@H]23)c1 (relative stereo) [III] | > 100 mg/kg | – | > 500 mg/kg | 100 mg/kg | – | –
COc1ccccc1NC(=O)[C@@H]1CCN2CCC[C@@H]12 (relative stereo) [II] | 74 mg/kg | – | > 500 mg/kg | – | – | –
COc1ccc(NC(=O)[C@@H]2CCN3CCC[C@@H]23)cc1 (relative stereo) [IV] | > 100 mg/kg | 100 mg/kg | > 500 mg/kg | – | – | –
Cc1cccc(C)c1NC(=O)[C@@H]1CCN2CCC[C@@H]12 (relative stereo) [IX] | 29 mg/kg | – | 447 mg/kg | – | 15.4 | –
Cc1ccc(C)c(NC(=O)[C@@H]2CCN3CCC[C@@H]23)c1 (relative stereo) [VIII] | > 100 mg/kg | 100 mg/kg | > 500 mg/kg | – | – | –
Cc1cccc(NC(=O)[C@@H]2CCN3CCC[C@@H]23)c1C (relative stereo) [VII] | > 100 mg/kg | 100 mg/kg | > 500 mg/kg | – | – | –
O=C(Nc1ccccc1Br)[C@@H]1CCN2CCC[C@@H]12 (relative stereo) [VI] | > 100 mg/kg | – | > 500 mg/kg | 100 mg/kg | – | –
O=C(Nc1ccccc1Cl)[C@@H]1CCN2CCC[C@@H]12 (relative stereo) [V] | > 100 mg/kg | – | 263 mg/kg | – | – | 100 mg/kg
O=C(Nc1c(Cl)cccc1Cl)[C@@H]1CCN2CCC[C@@H]12 (relative stereo) [XIII] | 38 mg/kg | – | 263 mg/kg | – | 6.92 | –
COc1ccc(OC)c(NC(=O)[C@@H]2CCN3CCC[C@@H]23)c1 (relative stereo) [XII] | > 100 mg/kg | – | > 500 mg/kg | 100 mg/kg | – | –
O=C(Nc1c(Br)cccc1Br)[C@@H]1CCN2CCC[C@@H]12 (relative stereo) [XIV] | 43 mg/kg | – | 468 mg/kg | – | 10.88 | –
CCc1cccc(CC)c1NC(=O)[C@@H]1CCN2CCC[C@@H]12 (relative stereo) [XI] | 38 mg/kg | – | 244 mg/kg | – | 6.24 | –
Cc1cc(C)c(NC(=O)[C@@H]2CCN3CCC[C@@H]23)c(C)c1 (relative stereo) [XV] | > 100 mg/kg | 100 mg/kg | 394 mg/kg | – | – | –
Cc1cc(C)cc(NC(=O)[C@@H]2CCN3CCC[C@@H]23)c1 (relative stereo) [X] | 100 mg/kg | > 100 mg/kg | > 500 mg/kg | – | – | –
